This note sets out measurements from PMC11018872, “Dynamic inter-domain transformations mediate the allosteric regulation of human 5, 10-methylenetetrahydrofolate reductase” (Nature Communications, 2024).

Holding throughout (format): binding
Test [1] addresses T1, 5,10-methylenetetrahydrofolate reductase (MTHFR) (Homo sapiens, UniProt P42898).
T1 construct: MTHFRFL aa 1–656
Description: ITC; cryo-EM structures at […] and […] Å. (In general: Isothermal titration calorimetry measures the heat released or taken up as one component is titrated into another.)

The target in test [2] is T1, 5,10-methylenetetrahydrofolate reductase (MTHFR). Briefly: cryo-EM structure at […] Å (SAM-bound state).
For test [3] the target is unchanged. Description: ITC; cryo-EM structure at […] Å; DSF; HPLC activity assay.

T1 sequence (P42898 whole entry, the tested form may be a part): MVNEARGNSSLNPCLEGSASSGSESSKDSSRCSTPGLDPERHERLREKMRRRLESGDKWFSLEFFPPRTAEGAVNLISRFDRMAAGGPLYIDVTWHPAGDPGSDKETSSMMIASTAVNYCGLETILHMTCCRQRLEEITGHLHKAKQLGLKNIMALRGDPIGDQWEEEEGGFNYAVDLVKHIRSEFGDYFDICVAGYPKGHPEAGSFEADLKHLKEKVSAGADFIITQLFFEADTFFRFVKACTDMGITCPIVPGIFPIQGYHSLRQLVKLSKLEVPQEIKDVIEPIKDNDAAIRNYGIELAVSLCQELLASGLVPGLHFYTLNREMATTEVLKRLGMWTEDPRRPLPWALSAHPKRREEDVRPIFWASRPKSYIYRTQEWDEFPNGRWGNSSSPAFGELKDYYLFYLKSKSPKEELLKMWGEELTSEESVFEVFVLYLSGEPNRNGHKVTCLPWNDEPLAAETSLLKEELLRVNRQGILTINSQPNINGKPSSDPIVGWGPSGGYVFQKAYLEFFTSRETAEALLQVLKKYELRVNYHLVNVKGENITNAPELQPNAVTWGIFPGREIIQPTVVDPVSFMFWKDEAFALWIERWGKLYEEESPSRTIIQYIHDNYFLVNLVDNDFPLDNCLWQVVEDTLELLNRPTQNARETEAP

On to `Nc1ncnc2c1ncn2[C@@H]1O[C@H](CSCC[C@H](N)C(=O)O)[C@@H](O)[C@H]1O` [SAH, S-adenosyl-L-homocysteine], for which, in test [1], the Kd fell in the range of 380 to 390 nM.

As for `Cc1cc2nc3c(=O)[nH]c(=O)nc-3n(C[C@H](O)[C@H](O)[C@H](O)COP(=O)(O)OP(=O)(O)OC[C@H]3O[C@@H](n4cnc5c(N)ncnc54)[C@H](O)[C@@H]3O)c2cc1C` [FAD, flavin adenine dinucleotide], the “cryo-EM structure at 2.9 Å (SAM-bound state)” value in test [2] is “FAD was found in both CD active sites of the homodimer (Fig. 2c) with clear electron densities”.

`C[S+](CC[C@H](N)C(=O)[O-])C[C@H]1O[C@@H](n2cnc3c(N)ncnc32)[C@H](O)[C@@H]1O` (stereo partly drawn) [SAM, S-adenosyl-L-methionine]: the Kd in test [3] was 860 to 990 nM.

Usually Kd stands for a measure of binding affinity in units of concentration. Read a low Kd as tighter binding.
